The values below come from US7888042B2, “Methods for identifying insulin mimetics” (Ohio University, priority 2005, dated 2011).

Several values for one entry are separate records, joined by “and”; a condition that tells them apart may be missing. Equal values may be shown once.

For test [1], the target named is T1, IR isolated from CHO-IR cells (Homo sapiens, UniProt P06213).
T1 construct: expressed in transfected cells; host or cells: CHO-IR cells (from Dr. Alan Saltiel's lab)
Nature of the test: 125I-insulin saturation binding to IR in WGA-coated wells. The note with it: 30 μM or 50 μM α-PGG. As to the method: (§1) (A) α-PGG binds to IR as measured by a SPR (28). Increasing concentrations of α-PGG was injected into the system to interact with the pure IR attached to the gold surface of the biosensor chip. The binding, represented in arbitrary response units, was automatically plotted against α-PGG concentrations to generate the binding curve. (B) Insulin binding to IR in the absence or presence of α-PGG. Increasing amounts of ^125I-labeled insulin were added to WGA-coated wells containing pre-bound IR isolated from CHO-IR cells in the absence of α-PGG or in the presence of 30 μM or 50 μM of α-PGG. After overnight incubation, removal of excessive ligands, and washing, the bound radioactive insulin was measured. (C) Insulin displacement by α-PGG. Fixed amounts of radioactive insulin (1 nM) were added to each of the WGA-coated wells pre-bound with IR. Increasing amounts of α-PGG were added to the wells to displace the ^125I-labeled insulin. […]
(§2) Insulin receptor binding studies. […] After sensograms of α-PGG-IR binding at different concentrations were recorded, the binding affinity was analyzed using BIAevaluation software. […] The bound ligand was detached (eluted) from the receptor with 2×200 μL 0.2M Glycine pH 2.8, and measured for its radioactivity using a Beckman Coulter LS 6400 Multi-Purpose Scintillation Counter. […] The receptor binding results were analyzed with the software GraphPad Prism.

Test [2] addresses T2, pure recombinant glycosylated IR (Homo sapiens, UniProt P06213).
T2 construct: purchased R&D Systems, Inc
Nature of the test: Surface plasmon resonance binding to IR. The note with it: SPR, IR bound to NTA chip; read-out: apparent binding affinity (Kd) to IR. As to the method:
as §1, §2

T2 sequence (P06213 28-746 isoform P06213-2 limits assumed): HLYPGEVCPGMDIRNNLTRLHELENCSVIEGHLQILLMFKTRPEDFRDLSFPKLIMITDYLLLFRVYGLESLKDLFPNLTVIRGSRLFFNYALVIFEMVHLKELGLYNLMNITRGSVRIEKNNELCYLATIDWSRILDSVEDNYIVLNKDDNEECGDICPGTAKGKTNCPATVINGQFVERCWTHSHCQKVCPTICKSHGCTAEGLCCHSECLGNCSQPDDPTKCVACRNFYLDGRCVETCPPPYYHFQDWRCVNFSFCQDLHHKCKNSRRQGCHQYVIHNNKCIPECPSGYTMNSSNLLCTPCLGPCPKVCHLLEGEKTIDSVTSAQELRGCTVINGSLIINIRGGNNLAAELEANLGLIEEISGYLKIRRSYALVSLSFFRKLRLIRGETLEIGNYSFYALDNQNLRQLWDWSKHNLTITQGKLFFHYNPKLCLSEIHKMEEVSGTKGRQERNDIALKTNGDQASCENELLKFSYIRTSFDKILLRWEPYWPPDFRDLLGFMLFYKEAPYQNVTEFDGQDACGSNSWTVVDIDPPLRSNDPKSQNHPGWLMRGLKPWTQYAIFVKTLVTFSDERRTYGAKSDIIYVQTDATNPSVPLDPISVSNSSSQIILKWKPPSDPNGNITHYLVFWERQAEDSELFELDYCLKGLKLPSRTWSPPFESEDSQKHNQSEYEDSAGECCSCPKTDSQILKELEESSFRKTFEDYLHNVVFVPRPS
T2 sequence (P06213 763-956 limits assumed): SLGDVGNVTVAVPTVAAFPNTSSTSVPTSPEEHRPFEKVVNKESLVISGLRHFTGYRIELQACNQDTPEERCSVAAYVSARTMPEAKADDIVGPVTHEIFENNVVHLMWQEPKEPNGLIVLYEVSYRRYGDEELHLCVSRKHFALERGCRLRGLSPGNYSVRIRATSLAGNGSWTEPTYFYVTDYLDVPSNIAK
T1 sequence (P06213 28-758 limits assumed): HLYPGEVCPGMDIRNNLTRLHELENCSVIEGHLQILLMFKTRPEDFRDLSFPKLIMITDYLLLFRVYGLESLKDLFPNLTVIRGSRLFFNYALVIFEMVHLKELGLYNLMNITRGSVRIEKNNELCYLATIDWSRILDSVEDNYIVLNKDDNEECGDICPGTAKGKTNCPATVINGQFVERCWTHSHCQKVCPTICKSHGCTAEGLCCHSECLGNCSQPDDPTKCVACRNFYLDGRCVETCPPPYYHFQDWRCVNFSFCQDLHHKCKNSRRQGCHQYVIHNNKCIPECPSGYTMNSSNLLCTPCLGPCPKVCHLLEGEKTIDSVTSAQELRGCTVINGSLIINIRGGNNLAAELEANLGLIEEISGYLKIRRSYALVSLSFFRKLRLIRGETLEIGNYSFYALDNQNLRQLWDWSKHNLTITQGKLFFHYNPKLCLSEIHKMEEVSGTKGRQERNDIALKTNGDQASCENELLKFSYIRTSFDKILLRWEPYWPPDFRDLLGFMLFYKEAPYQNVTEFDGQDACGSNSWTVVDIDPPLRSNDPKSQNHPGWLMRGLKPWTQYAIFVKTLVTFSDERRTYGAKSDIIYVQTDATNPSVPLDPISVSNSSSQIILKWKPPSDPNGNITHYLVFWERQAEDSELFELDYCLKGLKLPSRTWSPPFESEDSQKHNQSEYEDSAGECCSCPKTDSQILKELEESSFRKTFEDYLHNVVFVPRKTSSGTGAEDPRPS
T1 sequence (P06213 763-1382 partner limits assumed): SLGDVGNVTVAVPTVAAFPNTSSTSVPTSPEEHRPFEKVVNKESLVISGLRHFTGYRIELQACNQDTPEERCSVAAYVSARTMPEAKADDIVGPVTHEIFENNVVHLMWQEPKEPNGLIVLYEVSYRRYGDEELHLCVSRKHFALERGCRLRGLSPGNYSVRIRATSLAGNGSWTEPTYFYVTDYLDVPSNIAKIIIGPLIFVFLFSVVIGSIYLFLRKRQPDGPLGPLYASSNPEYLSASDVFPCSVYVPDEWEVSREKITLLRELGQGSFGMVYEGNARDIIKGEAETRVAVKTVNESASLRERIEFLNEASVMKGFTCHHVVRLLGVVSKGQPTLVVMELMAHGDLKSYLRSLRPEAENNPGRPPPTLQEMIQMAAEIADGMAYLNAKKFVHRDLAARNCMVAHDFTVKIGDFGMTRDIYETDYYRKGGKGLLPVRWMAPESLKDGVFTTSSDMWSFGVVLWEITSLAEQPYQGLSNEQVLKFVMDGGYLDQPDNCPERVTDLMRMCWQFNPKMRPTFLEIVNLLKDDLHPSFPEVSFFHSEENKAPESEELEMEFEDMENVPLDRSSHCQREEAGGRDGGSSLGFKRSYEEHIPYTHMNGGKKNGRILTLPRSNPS

`O=C(OC[C@H]1O[C@H](OC(=O)c2cc(O)c(O)c(O)c2)[C@H](OC(=O)c2cc(O)c(O)c(O)c2)[C@@H](OC(=O)c2cc(O)c(O)c(O)c2)[C@@H]1OC(=O)c1cc(O)c(O)c(O)c1)c1cc(O)c(O)c(O)c1` [α-PGG, alpha 1,2,3,4,6-penta-O-galloyl-D-Glucopyranose]: the “maximal binding (Bmax) for insulin” value in test [1] is “reduced in a dose-dependent manner”. Further, the Kd in test [2] was 43 µM and ~43 µM.
